Measured values from patent publication US5408036A, “Isolated metallopolypeptide: compositions and synthetic methods” (The Scripps Research Institute, priority 1993, dated 1995).
Residues, ends and D or L forms follow the SMILES beside them.

Columns and labels:
[1] = Metal ion selectivity and relative affinities by CD analysis; format: binding; conditions: CD analysis; peptide SEQ ID NO:11 at pH 6.0
Excerpt: Metal ion selectivity is an expected consequence of site specific metal-ligand interaction. The extent of helical induction, to a first approximation, depends on the affinity of metal ion toward the ligands employed, and on the compatibility of metal ion geometry and coordination sphere with the alpha-helical conformation. Thus, although numerous metal ions can induce and stabilize alpha-helix formation, the metal ion having the greatest relative affinity for the ligands employed is preferred and can readily be determined. […]
Peptides, prepared as in Example 1, and admixed with various metal salt solutions as described in Example 2B, were subjected to CD analysis to characterize metal ion selectivity with respect to the position of the metal binding site in the alpha-helical sequence.

[2] = CD titration: dependence of [θ]222 on free metal ion concentration, CuCl2; format: binding; conditions: CuCl2, pH 5.3; peptide 6.1×10^-5 M in 5 mM sodium borate, 21° C.
Excerpt: (§1) FIG. 4 illustrates the dependence of mean residue molar ellipticity at 222 nm ([.THETA.]222 ×10^-3) of peptides SEQ ID NO's:2 AND 3 on the concentration of free metal ions when measured as described in Example 3A(2).
(§2) The peptide metal salt solution admixtures prepared as in Example 2A were subjected to CD analyses according to published procedures to measure the degree of stability induced by metal ion complexation with peptides. Greenfield et al., Biochem, 8:4108 (1969) and Johnson, Ann. Rev. Biophvs. Chem., 17:145 (1988). All CD data reported herein have an uncertainty of ±2 to 5% for a 100% helix, [θ]222 =-35,000, and are based on several CD measurements of both peptides SEQ ID NO's:2 and 3 in the presence and absence of metal ions in various TFE/H20 mixtures at -10° to 20° C.
(§3) Both Cu(II) and Zn(II) bound peptide SEQ ID NO:3 with similar affinities and increased the helical content to the same extent.

[3] = CD titration: dependence of [θ]222 on free metal ion concentration, CdCl2; format: binding; conditions: CdCl2, pH 7.5; peptide 6.1×10^-5 M in 5 mM sodium borate, 21° C.
Excerpt: as §1, §2, §3

[4] = CD titration: dependence of [θ]222 on free metal ion concentration, ZnCl2; format: binding
Excerpt: as §1, §2, §3

[5] = Heat denaturation assay to measure melting temperatures; format: physicochemical
Procedure: In order to assess differences in helix stability between the metal ion complexed and uncomplexed forms of peptides Seq. ID No's. 3 and 4, the conformational stability of each peptide in the presence and absence of transition metal ions was determined from heat denaturation studies according to published procedures. Pace et al., In Protein structure, p. 311., IRL Press, (1989). The analysis of the thermal denaturation curves afforded linear ΔG vs. T and van't Hoff plots. […] Complexed peptides Seq. ID No's.
Because tris-bipyridyl-metal ion coordination complexes are chiral and can form either a left-handed or a right-handed helix, two diastereomeric tri-helical structures can possibly be formed. The stereogenic environment of the ensuing parallel tri-helical topology as well as the geometrical constraints imposed by the overall C3 symmetry of the coordination complex was expected, however, to enforce a high degree of diastereoselectivity in the assembly process. The CD spectrum (in the region of 280 and 330 nm) of the peptide in the presence of Ni(II) indicated the formation of one diastereomer having a left-handed helical configuration. Such a behavior is also consistent with the expected left handed supercoil of the tri-helical metallopolypeptide. The analysis of the thermal denaturation curves for the metallopolypeptide in the presence of Ni(II) yielded linear ΔG vs T and van't Hoff plots.

[6] = CD titration: dependence of [θ]222 on free metal ion concentration, NiCl2; format: binding; conditions: NiCl2, pH 6.3; peptide 6.1×10^-5 M in 5 mM sodium borate, 21° C.
Excerpt: as §1, §2, §3

[7] = Circular dichroism (CD) to measure degree of secondary structure (alpha-helicity); format: physicochemical
Procedure: ID No's. 3 and 4. The analysis was performed as described above.
Proton nuclear magnetic resonance spectra were recorded at 300MHz on Bruker AM300 spectrometer and are reported in parts per million (ppm) downfield from Me4 Si. Ultraviolet-visible spectra were recorded on Aviv Associates 14DS and Milton Roy Spectronic 3000 Array spectrometers. Circular dichroism measurements were made on Aviv Associates 62DS spectrometer equipped with a thermostable cell holder using 10, 1, and 0.1 mm Hellma quartz cells. All reported CD data have an uncertainty of ±2-5%. All ellipticity measurements are expressed as mean residue ellipticity, [θ], having the units deg·cm^2 ·dmol-^1.

[8] = Absorption spectroscopy pH profile of Ru(III)-peptide complexes; format: physicochemical; conditions: from absorption data vs pH
Excerpt: The Ru(III)-peptide SEQ ID NO:3 complex prepared as in Example 2B was subjected to absorption spectroscopy to further confirm the formation of a metallopeptide complex.
The pronounced shift in absorption maxima with increasing pH value is consistent with the behavior of the Ru(III) ions containing coordinated imidazoles and is attributed to N-H deprotonation at the "pyrrole nitrogen", Sunberg et al., J. Am. Chem. Soc., 96:381 (1974). […] The spectral similarity with the simple ruthenium(III)imidazole complexes and the characteristically facile metal-ion promoted imidazole NH ionization provide further support for the formation of the metallopeptide complex.

[9] = in the presence of Cu(II) ions (CuSO4, solution 13) at 0° C.

Kd [2] | Kd [3] | Kd ([4]; ZnCl2, pH 7.5, peptide 6.1×10^-5 M in 5 mM sodium borate, 21° C.) | Kd [6] | alpha-helicity [7, 9] | θ222 [7, 9] | dependence of CD spectra on peptide concentration ([7]; presence and absence of metal ions, 0.5-70 μM) | Molecule | metal ions bound, order of affinity [1] | effect of Zn(II) on helical content ([4]; CD analysis, ZnCl2) | melting temperature (Tm) [5] | dependence of helicity on added NaF ([7]; NaF up to 250 mM, 5 mM sodium borate) | alpha-helicity ([7]; room temperature in water) | θ222 ([7]; room temperature in water) | pKa of the imidazole NH of the coordinated histidine [8]
66 µM | 220 µM | 75 µM | 210 µM | about 90% | -31,100 | independent of the peptide concentration | CC(=O)N[C@@H](C)C(=O)N[C@@H](CCC(=O)O)C(=O)N[C@@H](C)C(=O)N[C@@H](C)C(=O)N[C@@H](C)C(=O)N[C@@H](CCCCN)C(=O)N[C@@H](CCC(=O)O)C(=O)N[C@@H](C)C(=O)N[C@@H](C)C(=O)N[C@@H](C)C(=O)N[C@@H](CCCCN)C(=O)N[C@@H](Cc1c[nH]cn1)C(=O)N[C@@H](C)C(=O)N[C@@H](C)C(=O)N[C@@H](C)C(=O)N[C@@H](Cc1c[nH]cn1)C(=O)N[C@@H](C)C(N)=O [peptide SEQ ID NO:3, Ac--Ala--Glu--Ala--Ala--Ala--Lys--Glu--Ala--Ala--Ala--Lys--His--Ala--Ala--Ala--His--Ala--CONH2] (Ac-AEAAAKEAAAKHAAAHA-NH2) | Ni(II), Cd(II), Cu(II) and Zn(II) in descending order of affinity | considerable helical induction | 11 °C | independent of concentration of added NaF up to 250 mM | 45% | -16,600 | 
 |  |  |  |  |  |  | Ru(III)-peptide SEQ ID NO:4 complex: exchange-inert macrocyclic cis-[Ru(NH3)4 (L)2 ]^3+ complex of peptide SEQ ID NO:4 through two His residues at i and i+4 (AEAAAKHAAAHEAAAKA; Ru(III) tetraammine macrocyclic complex via two His) |  |  | 9.5 °C |  | 50% | -17,300 | 7.5
